Assay results: US6403618B1, “Agent and method for controlling angiogenesis” (Novactyl, Inc., priority 2000, dated 2002)

Legend:
[1] = system: human breast adenocarcinoma MDA-468 cells; assay: Effect of fusaric acid on growth (cell number); format: cell-based
Description: (§1) After 12-24 hours of treatment with 500 μM fusaric acid, there was no further increase in cell number. […] These floating cells were not viable. Within 30 hours of treatment there was a 65% decrease in cell number. […] After 96 hours, less than 10% of the original population remained attached to the dish and no change in cell number was noted after one additional week.

WI-38 cells [2] = assay: Viability by trypan blue dye exclusion; format: cell-based; conditions: 500 μM
Description: To examine WI-38 cell viability in greater detail, the effects of fusaric acid were studied in logarithmically growing and contact inhibited confluent cells (Tables 2 and 3). In logarithmically growing WI-38 cells approximately 76% of the cells were viable after 30 hours of treatment with fusaric acid. When the cells were treated for 78 hours, only 26% of the cell population survived the pronounced cytotoxic actions of fusaric acid.

LoVo cells [3] = assay: Effect of different doses of fusaric acid on total cell protein; format: cell-based
Description: (§2) In initial experiments to examine the effects of fusaric acid on cell growth and viability, WI-38 and LoVo cells were incubated for 24 to 72 hours in medium with or without various doses of fusaric acid (0.1-1 mM). The growth of both WI-38 and LoVo cells was inhibited by 500 μM fusaric acid in a time and dose dependent manner, as shown below in Table 2.

WI-38 cells [4] = assay: as above; format: cell-based; conditions: WI-38, 1 mM
Description: as §2

[5] = system: Prostatic adenocarcinoma cell line; assay: Viability of other human carcinoma cell types; format: cell-based; conditions: 48 hours of treatment
Description: (§3) As in previous examples, the following human cell lines were inhibited by similar concentrations of fusaric acid: Prostatic adenocarcinoma, skin carcinoma, colon carcinoma, liver adenocarcinoma and lung adenocarcinoma. For all these cell types, cell viability decreased by approximately 60% after 48 hours of treatment with fusaric acid.

[6] = system: colon carcinoma cell line; assay: Viability of other human carcinoma cell types; format: cell-based; conditions: 48 hours of treatment
Description: as §3

[7] = system: liver adenocarcinoma cell line; assay: Viability of other human carcinoma cell types; format: cell-based; conditions: 48 hours of treatment
Description: as §3

skin carcinoma cell line = assay: Viability of other human carcinoma cell types; format: cell-based; conditions: 48 hours of treatment
Description: as §3

[8] = system: lung adenocarcinoma cell line; assay: Viability of other human carcinoma cell types; format: cell-based; conditions: 48 hours of treatment
Description: as §3

MDA-468 cells [9] = assay: DNA synthesis; format: cell-based; conditions: Homo sapiens, by 24 hr, read-out: DNA synthesis inhibited
Description: as §1

KB cells = assay: Viability by trypan blue dye exclusion; format: cell-based, human; conditions: confluent cells, 500 μM, 48 h
Description: To examine KB cell viability in greater detail, the effects of fusaric acid were studied in logarithmically growing and confluent cells. In logarithmically growing KB cells 70% of the cells were viable after 48 hours in 500 μM fusaric acid. […] Thus, in contrast to LoVo cells, a significant proportion of the population of growing (70%) cells and virtually all (95%) of confluent KB cells resisted the pronounced cytotoxic action of fusaric acid (See Tables 3 and 4, above).

WI-38 cells [10] = assay: Effect of fusaric acid on growth (cell number); format: cell-based
Description: The remaining cells were spread on the substratum in normal manner without any visible mitosis for 4 days after removal of the drug.

MDA-468 cells [11] = format: cell-based, human
Description: As in the case of WI-38, MDA-468 cell viability after fusaric acid treatment was investigated in logarithmically growing and confluent cells. In logarithmically growing MDA-468 cells, less than 20% of the attached cells were viable after 30 hours of treatment with fusaric acid. When the cells were treated for 48 hours, only 0.1% of the cell population survived the pronounced cytotoxic actions of fusaric acid. […] Thus, MDA-468 cells are extremely sensitive to the cytotoxic actions of fusaric acid in both growing and confluent population of cells in comparison to normal WI-38 lines studied.

[12] = system: colon carcinoma LoVo cells; assay: Effect of fusaric acid on growth (cell number); format: cell-based
Description: After 30 hours of treatment with 500 μM fusaric acid, there was a prominent decrease in cell number. DNA synthesis was completely (100%) inhibited by 24 hours. When treated with 500 μM fusaric acid, the majority of the LoVo cells acquired a rounded morphology by 48 hours.
These floating cells were not viable. […] However, after 100 hours, an increase in cell number was noted after 25 additional hours.

LoVo cells [13] = assay: Viability by trypan blue dye exclusion; format: cell-based; conditions: 500 μM
Description: As in the case of WI-38, LoVo cell viability after fusaric acid treatment was investigated in logarithmically growing and confluent cells, as shown in Tables 2 and 3. In logarithmically growing LoVo cells, approximately 38% of the attached cells were viable after 30 hours of treatment with fusaric acid. When the cells were treated for 78 hours, only 4.5% of the cell population survived the pronounced cytotoxic actions of fusaric acid. […] Thus, LoVo cells are much more sensitive to the cytotoxic actions of fusaric acid in both growing and confluent population of cells in comparison to normal WI-38 cells.

[14] = 500 μM, within 30 hours of treatment
[15] = logarithmic growth, 30 h, listed as Fusaric Acid

In the case of `CCCCc1ccc(C(=O)O)nc1` [fusaric acid], the “decrease in cell number” value [1, 14] is reported as 65%, the “original population remaining attached to the dish” value ([1]; drug removed after 30 hours, after 96 hours) is reported as “less than 10%” and the “% Survival” value (WI-38 cells [2]; confluent cells, 48 h) is reported as 100%. The “% Survival” value (WI-38 cells [2]; [15]) was 76.4%, the “% Survival” value (WI-38 cells [2]; logarithmic growth, 78 h) was 26% and the cytotoxicity (LoVo cells [3]; 1 mM fusaric acid, by 24 hours) was “extensive cytotoxicity”. The “Monolayer Protein” value (LoVo cells [3]; LoVo, 0.5 mM, 48 h) was 90 μg/dish, the “Monolayer Protein” value (WI-38 cells [4]; 24 h) was 236 μg/dish and the “Monolayer Protein” value (WI-38 cells [4]; 48 h) was 202 μg/dish. For the same compound, the cell viability decreased [5] was “approximately 60%”, the cell viability decreased [6] was “approximately 60%” and the cell viability decreased [7] was “approximately 60%”. The cell viability decreased (skin carcinoma cell line) was “approximately 60%”, the cell viability decreased [8] was “approximately 60%” and the inhibition at 500 µM (MDA-468 cells [9]) was 100%. For the same compound, the “% Survival” value (KB cells) was 95%, the “decrease in cell number” value (WI-38 cells [10]; 30 hours with 500 μM, then 4 days in normal media) was 30% and the cells survived (WI-38 cells [10]; after removal of fusaric acid, 500 μM for 30 hours) was over 95%. The cells survived (MDA-468 cells [11]; confluent cells, 500 μM, 48 hours) was 10%, the attached cells viable (MDA-468 cells [11]; logarithmic growth, 30 hours) was “less than 20%” and the cell population survived (MDA-468 cells [11]; logarithmic growth, 48 hours) was 0.1%. The “decrease in cell number” value [12, 14] was 60%, the “decline of cell population after removal of the drug” value ([12]; removal after 30 hours, up to approximately 100 hours) was about 80% and the “% Survival” value (LoVo cells [13]; confluent cells, 48 h) was 40%. For the same compound, the “% Survival” value (LoVo cells [13]; logarithmic growth, 30 h) was “approximately 38%”, the “% Survival” value (LoVo cells [13]; [15]) was 38.5% and the “% Survival” value (LoVo cells [13]; logarithmic growth, 78 h) was 4.5%.
